# BindingDB's records for patent US10954228 (The Trustees of The University of Pennsylvania, 2021)
# Biological target: L-lactate dehydrogenase A chain (Homo sapiens, UniProt P00338)
# Experiment: Biochemical Assay
# Method: Test compounds were placed in a Greiner Bio-One (Monroe, N.C.) 1536-well black solid bottom assay plate. 200 millimolar (mM) Tris HCl, pH 7.4, 100 micromolar (μM) EDTA and 0.01% TWEEN-20, final concentration, was used as the assay buffer. The LDHA reagent was 2 nanomolar (nM) Human LDHA (Meridian Life Science, Inc., Memphis, Tenn.), final concentration, in assay buffer. The substrate reagent was 0.06 mM NADH and 0.2 mM sodium pyruvate, final concentration, in assay buffer. The resazurin/diaphorase coupling reagent was 0.037 mM resazurin and 0.133 milligrams per milliliter (mg/mL) diaphorase, final concentration, in assay buffer. The inhibition of LDHA activity was measured by fluorescence emission.
row,Structure (SMILES),IC50 [µM]
1,"CCC#Cc1cc(-c2nn(-c3nc(C(=O)O)cs3)c(CC3CC3)c2Cc2ccc([S+](N)(=O)[O-])c(F)c2)ccc1F [US10954228, Compound 109]",< 0.1
2,"Cc1ccc(C#Cc2cccc(-c3nn(-c4nc(C(=O)O)cs4)c(C4CC4C4CC4)c3Cc3ccc([S+](N)(=O)[O-])c(F)c3)c2)s1 (stereo not given) [US10954228, Compound 134]",0.1 to 1
3,"NS(=O)(=O)c1ccc(Cc2c(-c3cccc(C(=O)N4CCCC4)c3)nn(-c3nc(C(=O)O)cs3)c2CC2CC2)cc1 [US10954228, Compound 145]",< 0.1
4,"CC(C)(C)NC(=O)c1cc(-c2nn(-c3nc(C(=O)O)cs3)c(CC3CC3)c2Cc2ccc([S+](N)(=O)[O-])c(F)c2)ccc1F [US10954228, Compound 147]",< 0.1
5,"CC(C)(C)NC(=O)c1cccc(-c2nn(-c3nc(C(=O)O)cs3)c(CC3CC3)c2Cc2ccc([S+](N)(=O)[O-])cc2)c1 [US10954228, Compound 188]",< 0.1
6,"CN(C)c1ccc(-c2cc(-c3nn(-c4nc(C(=O)O)cs4)c(CC4CC4)c3Cc3ccc(S(N)(=O)=O)c(F)c3)ccc2F)cc1 [US10954228, Compound 190]",< 0.1
7,"NS(=O)(=O)c1ccc(Cc2c(-c3ccc(F)c(-c4cccc(F)c4)c3)nn(-c3nc(C(=O)O)cs3)c2CC2CC2)cc1F [US10954228, Compound 196]",< 0.1
8,"CC(C)c1ccc(-c2cc(-c3nn(-c4nc(C(=O)O)cs4)c(CC4CC4)c3Cc3ccc(S(N)(=O)=O)c(F)c3)ccc2F)cc1 [US10954228, Compound 199]",< 0.1
9,"CC(C)c1cnc(-c2cccc(-c3nn(-c4nc(C(=O)O)cs4)c(CC4CC4)c3Cc3ccc(S(N)(=O)=O)c(F)c3)c2)nc1 [US10954228, Compound 216]",< 0.1
10,"CC(C)c1ccc(-c2cccc(-c3nn(-c4nc(C(=O)O)cs4)c(CC4CC4)c3Cc3ccc(S(N)(=O)=O)c(F)c3)c2)nc1 [US10954228, Compound 218]",< 0.1
